Consider 29 molecules from patent US20240140931A1, “TRICYCLIC COMPOUNDS AND USES THEREOF” (HUTCHMED LIMITED, priority 2021, published 2024).

One experiment has as its system Miapaca2 3D spheroids. Nature of the experiment: Assay of cell proliferation on Miapaca2 3D spheroids. Format: cell-based. The following applies: CellTiter-Glo 3D, 5 days treatment. How it is done:
Example 4 Assay of Cell Proliferation on Miapaca2 3D Spheroids
1. Reagents and Materials • CellTiter-Glo® 3D Cell Viability Assay Kit: Promega, Cat #G9683; • CellCarrier Spheroid ULA 96-well plate: Corning, Cat #4515; • Instrument: Envision, Perkinelmer; • Cell line: Miapaca2, ATCC, Cat #CRL-1420.
2. Preparation of Reaction Solutions • The test compound was dissolved in DMSO and diluted with DMSO to 3000.0 μM, and the compound was further 3-fold diluted with DMSO to: 1000.0, 333.3, 111.1, 37.0, 12.3, 4.1, and 1.4 μM. Then 2 μL of the compound at different dilution concentrations was added to 198 μL of a 1640 medium to prepare a 10× test compound, wherein DMSO was at the concentration of 1% (DMSO was at the final concentration of 0.1%).
3. Experimental Methods • Day0: Digest cells and count cell numbers. Miapaca2 cells were inoculated into a spheroid ULA 96-well plate at a density of 300 cells/well at 100 μL/well and cultured in a cell incubator at 5% CO2 and 37° C. • Day2: The cell spheroids formed at day2. Add 10 μL of 10× test compounds to the 96-well plate. To the cell positive control well was added 10 μL of 1% DMSO 1640 medium. Incubate the cell spheroids in a cell incubator at 5% CO2 and 37° C. for additional 5 days. • Cell viability assay: Add 50 μL of CellTiter-Glo reagent to each well, place the plate in a microplate shaker, and lysis under shaking at 900 rpm at room temperature for 5 minutes. Then incubate the plate at room temperature in the dark for 30 minutes. • The luminescene of each well was detected on Envision2104.
Cell Survial %=(Lum(d7 treatment)−Lum(d2 cell))/(Lum(d7 cell)−Lum(d2 cell))×100
Wherein: • Lum(d7 treatment) refers to the luminescene of the test compound treated cells on day7; • Lum(d2 cell) refers to the luminescene of the 0.1% DMSO treated Miapaca2 cells on day2; • Lum(d7 cell) refers to the luminescene of the 0.1% DMSO treated Miapaca2 cells on day7. • IC50 values were calculated following formula 205: y=A+((B−A)/(1+((C/X)^D))), by using the XL-Fit 5.0 software.

For experiment [1], the system named is pERK1/2 (Thr202/Tyr204) in Miapaca2 cells. The experiment is described as follows: Assay of intracellular pERK1/2 (Thr202/Tyr204) phosphorylation. Particulars: pERK1/2 (Thr202/Tyr204) HTRF. Format: cell-based. The method, boiled down:
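HTRF read-out (665/615 nm) of phospho-ERK1/2 Thr202/Tyr204 in lysates from Miapaca2 cells exposed for 2 h to 3-fold compound dilutions at 0.5% final DMSO. Controls: lysis buffer without cells and DMSO-treated cells; IC50 from four-parameter logistic fit.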

The target in experiment [2] is Human full-length SHP2 recombinant protein (Homo sapiens (Human), UniProt Q06124). Nature of the experiment: Assay of full-length SHP2 phosphatase activity. The format is biochemical. The following applies: DiFMUP substrate, with activating peptide. The method, boiled down: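 Readout: DiFMUP hydrolysis fluorescence (355/460 nm) after 60 min at 25 °C, following 30 min RT preincubation of compound with peptide-activated full-length human SHP2. Controls were 1% DMSO with or without enzyme; IC50 by four-parameter logistic fit.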
Human full-length SHP2 recombinant protein, sequence (Q06124 whole entry): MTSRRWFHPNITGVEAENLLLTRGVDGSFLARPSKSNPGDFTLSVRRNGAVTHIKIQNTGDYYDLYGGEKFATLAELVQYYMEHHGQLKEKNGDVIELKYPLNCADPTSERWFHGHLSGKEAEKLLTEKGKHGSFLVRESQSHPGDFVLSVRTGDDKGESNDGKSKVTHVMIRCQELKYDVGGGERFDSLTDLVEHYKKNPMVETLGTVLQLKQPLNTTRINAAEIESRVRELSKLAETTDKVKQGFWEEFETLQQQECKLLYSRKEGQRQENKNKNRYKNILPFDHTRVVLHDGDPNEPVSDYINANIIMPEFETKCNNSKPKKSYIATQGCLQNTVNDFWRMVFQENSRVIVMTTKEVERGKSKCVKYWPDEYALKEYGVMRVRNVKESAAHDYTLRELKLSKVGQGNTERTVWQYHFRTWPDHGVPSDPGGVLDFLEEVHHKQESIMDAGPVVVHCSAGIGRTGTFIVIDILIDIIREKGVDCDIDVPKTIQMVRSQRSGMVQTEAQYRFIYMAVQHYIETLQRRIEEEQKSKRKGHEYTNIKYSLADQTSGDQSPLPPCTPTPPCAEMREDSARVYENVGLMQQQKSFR

Where [3] appears, read: Homo sapiens, MIA PaCa-2, 120 h.

Turning to `CNC(=O)C#Cc1ccc2c(c1)[C@@H](N)C1(CCN(c3cc(=O)n(-c4ccc(F)c(F)c4Cl)c(C)n3)CC1)C2` (atropisomer, axis not shown) [Compound 209], the IC50 with Miapaca2 3D spheroids was 38 nM; in experiment [1] (2 hours) it was 19 nM; in experiment [2], 1 nM.

As for `C#Cc1cc(F)c2c(c1)[C@@H](N)C1(CCN(c3nc(C)n(-c4cccc(Cl)c4Cl)c(=O)c3C)CC1)C2` [Compound 168], the IC50 in the experiment with Miapaca2 3D spheroids (setting [3]) was 77 nM; in experiment [1] (Homo sapiens, MIA PaCa-2, 2 h), 34 nM; in experiment [2] it was 10 nM.

`C#Cc1ccc2c(c1)[C@@H](N)C1(CCN(c3cc(=O)n(-c4ccc(F)c(OC)c4Cl)c(C)n3)CC1)C2` [Compound 157]: the values for the IC50 (in the experiment on Miapaca2 3D spheroids; in experiment [1] (2 hours); in experiment [2]) were 28 nM, 25 nM and 2 nM, respectively.

As for `Cc1nc(Sc2ccnc(N)c2Cl)cnc1N1CCC2(CC1)Cc1ccc(C#CC(N)=O)cc1[C@H]2N` [Compound 271], the IC50 was determined as 2 nM with Miapaca2 3D spheroids (setting [3]); 4 nM in experiment [1] (Homo sapiens, MIA PaCa-2, 2 h); 1 nM in experiment [2].

Regarding `CNC(=O)C#Cc1ccc2c(c1)[C@@H](N)C1(CCN(c3ncc(Sc4ccnc(N)c4Cl)n4nccc34)CC1)C2` [Compound 177], the half-maximal inhibitory concentration (IC50) with Miapaca2 3D spheroids (setting [3]) was determined as 4 nM; in experiment [1] (Homo sapiens, MIA PaCa-2, 2 h) it was 7 nM; in experiment [2], 2 nM.

In the case of `Nc1nc(N2CCC3(CC2)Cc2ccc(C#CC(=O)NC4CC4)cc2[C@H]3N)c(Cl)nc1Sc1ccnc(N)c1Cl` [Compound 230], the IC50 turned out to be 7.4 nM in the experiment with Miapaca2 3D spheroids (setting [3]); 31 nM in experiment [1] (Homo sapiens, MIA PaCa-2, 2 h); 10 nM in experiment [2].

Consider `Cc1nc(Sc2ccnc(N)c2F)c(N)nc1N1CCC2(CC1)Cc1ccc(C#CC(N)=O)cc1[C@H]2N` [Compound 274], for which the IC50 was 3 nM in the experiment on Miapaca2 3D spheroids (setting [3]); 6 nM in experiment [1] (Homo sapiens, MIA PaCa-2, 2 h); 1 nM in experiment [2].

`CNC(=O)C#Cc1ccc2c(c1)[C@@H](N)C1(CCN(c3nc(N)c(Sc4ccnc(N)c4Cl)nc3F)CC1)C2` [Compound 239, (S)-3-(1-amino-1′-(6-amino-5-((2-amino-3-chloropyridin-4-yl)thio)-3-fluoropyrazin-2-yl)-1,3-dihydrospiro[indene-2,4′-piperidin]-6-yl)-N-methylpropiolamide]: the half-inhibitory concentration (IC50) amounted to 2.1 nM in the experiment on Miapaca2 3D spheroids (setting [3]); 15 nM in experiment [1] (Homo sapiens, MIA PaCa-2, 2 h); 3 nM in experiment [2].

Regarding `C#Cc1ccc2c(c1)[C@@H](N)C1(CCN(c3ncc(Sc4ccnc(N)c4Cl)c(N)n3)CC1)C2` [Compound 205], the concentration for half-maximal inhibition (IC50) in the experiment with Miapaca2 3D spheroids was 68 nM; in experiment [1] (2 hours) it was 29 nM; in experiment [2], 12 nM.

With `NC(=O)NCC#Cc1ccc2c(c1)[C@@H](N)C1(CCN(c3cnc(Sc4ccnc(N)c4Cl)c(N)n3)CC1)C2` [Compound 159, (S)-1-(3-(1-amino-1′-(6-amino-5-((2-amino-3-chloropyridin-4-yl)thio)pyrazin-2-yl)-1,3-dihydrospiro[indene-2,4′-piperidin]-6-yl)prop-2-yn-1-yl)urea], the IC50 with Miapaca2 3D spheroids (setting [3]) turned out to be 6 nM; in experiment [1] (Homo sapiens, MIA PaCa-2, 2 h) it was 5 nM; in experiment [2], 1 nM.

Take `CCNC(=O)C#Cc1ccc2c(c1)[C@@H](N)C1(CCN(c3cnc(N4CCCc5ncccc54)nn3)CC1)C2` [Compound 244]: the IC50 in the experiment with Miapaca2 3D spheroids (setting [3]) is 41 nM; in experiment [1] (Homo sapiens, MIA PaCa-2, 2 h), 139 nM; in experiment [2] it was 11 nM.

For the molecule `Cc1c(N2CCC3(CC2)Cc2ccc(C#CC(=O)N(C)C)cc2[C@H]3N)nc(C)n(-c2cccc(Cl)c2Cl)c1=O` [Compound 195], the IC50 stood at 30 nM with Miapaca2 3D spheroids (setting [3]); 11 nM in experiment [1] (Homo sapiens, MIA PaCa-2, 2 h); 1 nM in experiment [2].

Turning to `CCNC(=O)C#Cc1ccc2c(c1)[C@@H](N)C1(CCN(c3cnc(Sc4cc(N)ncc4Cl)c(N)n3)CC1)C2` [Compound 247], the IC50 with Miapaca2 3D spheroids (setting [3]) was 1 nM; in experiment [1] (Homo sapiens, MIA PaCa-2, 2 h), 3 nM; in experiment [2], 1 nM.

For the molecule `CNC(=O)C#Cc1ccc2c(c1)[C@@H](N)C1(CCN(c3cnc(Sc4ccnc(N)n4)cn3)CC1)C2` [Compound 262], the IC50 was found to be 1 nM with Miapaca2 3D spheroids (setting [3]); 7 nM in experiment [1] (Homo sapiens, MIA PaCa-2, 2 h); 0.3 nM in experiment [2].

Turning to `Cc1nc(N2CCC3(CC2)Cc2ccc(C#CC(N)=O)cc2[C@H]3N)cnc1Sc1ccnc(N)n1` [Compound 281], the IC50 amounted to 24 nM in the experiment with Miapaca2 3D spheroids (setting [3]); 167 nM in experiment [1] (Homo sapiens, MIA PaCa-2, 2 h); 10 nM in experiment [2].

For `CNC(=O)C#Cc1ccc2c(c1)[C@@H](N)C1(CCN(c3cnc(N4CCCc5ncccc54)cn3)CC1)C2` [Compound 251], the IC50 with Miapaca2 3D spheroids (setting [3]) amounted to 29 nM; in experiment [1] (Homo sapiens, MIA PaCa-2, 2 h), 24 nM; in experiment [2], 1 nM.

For the molecule `CCNC(=O)C#Cc1ccc2c(c1)[C@@H](N)C1(CCN(c3cnc(Sc4ccnc(N)n4)cn3)CC1)C2` [Compound 260], the IC50 is 2 nM in the experiment on Miapaca2 3D spheroids (setting [3]); 5 nM in experiment [1] (Homo sapiens, MIA PaCa-2, 2 h); 1 nM in experiment [2].

For `C#Cc1ccc2c(c1)[C@@H](N)C1(CCN(c3nc(N)c(-c4cn(C)c5ncccc45)c(=O)n3C)CC1)C2` [Compound 284], the IC50 stood at 4 nM with Miapaca2 3D spheroids (setting [3]); 5 nM in experiment [1] (Homo sapiens, MIA PaCa-2, 2 h); 2 nM in experiment [2].

With `COCC#Cc1ccc2c(c1)[C@@H](N)C1(CCN(c3ncc(Sc4ccnc(N)c4Cl)c(=O)n3C)CC1)C2` [Compound 291], the IC50 in the experiment on Miapaca2 3D spheroids (setting [3]) was 0.3 nM; in experiment [1] (Homo sapiens, MIA PaCa-2, 2 h), 9 nM; in experiment [2], 1 nM.

In the case of `CNC(=O)C#Cc1ccc2c(c1)[C@@H](N)C1(CCN(c3cc(=O)n(-c4cccc(OC)c4Cl)c(C)n3)CC1)C2` (atropisomer, axis not shown) [Compound 182], the IC50 in the experiment with Miapaca2 3D spheroids (setting [3]) amounted to 18 nM; in experiment [1] (2 hours), 23 nM; in experiment [2], 1 nM.

In the case of `C#Cc1ccc2c(c1)[C@@H](N)C1(CCN(c3cc(=O)n(-c4ccc(C#N)c(OC)c4Cl)c(C)n3)CC1)C2` (atropisomer, axis not shown) [Compound 191], the results for the half-maximal inhibitory concentration (IC50) (with Miapaca2 3D spheroids; in experiment [1] (2 hours); in experiment [2]) were 58 nM, 21 nM and 1 nM, respectively.

As for `CNC(=O)C#Cc1ccc2c(c1)[C@@H](N)C1(CCN(c3nc(N)c(Sc4ccnc(N)c4Cl)nc3Br)CC1)C2` [Compound 240, (S)-3-(1-amino-1′-(6-amino-5-((2-amino-3-chloropyridin-4-yl)thio)-3-bromopyrazin-2-yl)-1,3-dihydrospiro[indene-2,4′-piperidin]-6-yl)-N-methylpropiolamide], the IC50 in the experiment on Miapaca2 3D spheroids (setting [3]) amounted to 5 nM; in experiment [1] (Homo sapiens, MIA PaCa-2, 2 h), 18 nM; in experiment [2], 1.5 nM.

For the molecule `C#Cc1ccc2c(c1)[C@@H](N)C1(CCN(c3cc(=O)n(-c4ccc(C#N)c(OC)c4Cl)c(C)n3)CC1)C2` [Compound 183], the IC50 in the experiment on Miapaca2 3D spheroids (setting [3]) is 68 nM; in experiment [1] (2 hours) it was 50 nM; in experiment [2], 2 nM.

Regarding `COCC#Cc1ccc2c(c1)[C@@H](N)C1(CCN(c3cc(=O)n(-c4ccc(F)c(OC)c4Cl)c(C)n3)CC1)C2` [Compound 158], the IC50 worked out at 32 nM with Miapaca2 3D spheroids, 31 nM in experiment [1] (2 hours) and 3 nM in experiment [2].

`Cc1nc(Sc2ccnc(N)c2Cl)c(N)nc1N1CCC2(CC1)Cc1ccc(C#CC(N)=O)cc1[C@H]2N` [Compound 276]: the IC50 came to 3 nM with Miapaca2 3D spheroids (setting [3]); 4 nM in experiment [1] (Homo sapiens, MIA PaCa-2, 2 h); 2 nM in experiment [2].

In the case of `C#Cc1ccc2c(c1)[C@@H](N)C1(CCN(c3cc(=O)n(-c4cccc(C#N)c4Cl)c(C)n3)CC1)C2` [Compound 268], the IC50 in the experiment with Miapaca2 3D spheroids (setting [3]) is 17 nM; in experiment [1] (2 hours), 63 nM.

For the molecule `CCNC(=O)C#Cc1ccc2c(c1)[C@@H](N)C1(CCN(c3ncc(Sc4ccnc(N)c4Cl)nc3C#N)CC1)C2` [Compound 278], the IC50 in the experiment on Miapaca2 3D spheroids (setting [3]) was 16 nM; in experiment [1] (Homo sapiens, MIA PaCa-2, 2 h) it was 34 nM; in experiment [2], 5 nM.

For the molecule `C#Cc1ccc2c(c1)[C@@H](N)C1(CCN(c3cc(=O)n(-c4cccc(Cl)c4F)c(C)n3)CC1)C2` (atropisomer, axis not shown) [Compound 66], the IC50 in experiment [1] (2 hours) was found to be 271 nM; in experiment [2], 24 nM.

In the case of `COCC#Cc1ccc2c(c1)[C@@H](N)C1(CCN(c3ncc(Sc4ccnc(N)c4Cl)c4nccn34)CC1)C2` [Compound 40], the IC50 in experiment [1] (Homo sapiens, MIA PaCa-2, 2 h) was 6 nM; in experiment [2], 2 nM.
